The values below come from patent US9757400B2, “Peptidomimetic inhibitors of post-proline cleaving enzymes” (Trustees of Tufts College, priority 2001, dated 2017).

Data set [1] addresses T1, DPPIV (Rattus norvegicus, UniProt P14740).
T1 construct: from tissue; host or cells: rat serum
Kind of data set: DPPIV assays on serum samples from treated rats. The following applies: 1 hour after treatment versus before. The data set is classed as in vivo. The procedure:
Four rats were used in this experiment: two females (#3 and #9) and two males (#10 and #11). Blood and plasma samples were collected from rats 1 hour after being treated with Cyclohexylglycine-boroAla. The collected serum samples were evaluated for DPPIV activity of Cyclohexylglycine-boroAla as follows: • 2 mg of Ala-Pro-paranitroanalide (substrate) was dissolved in 20 ml 0.1 M HEPES pH 8, 0.14 M NaCl (buffer). • Serum samples were diluted into substrate solution in the wells of a microtiter plate. For each sample, 10 uL of serum was diluted into 150 μL of substrate. • A reading of the A410 in each well was recorded immediately after the dilution of serum into substrate, and again after approximately 1 hour. The time of data acquisition for each reading is recorded in the data file by the microplate reader software.
The rate of absorbance change was obtained by subtracting the first reading from the second and dividing by the reaction time to give DeltaA410/hr. The DPPIV activity was plotted in units of DeltaA410 hr^−1 μL^−1.

Another data set relates to zucker obese rats. Kind of data set: Oral glucose tolerance test (oral glucose challenge) in zucker rats. It counts as in vivo, rat. The following applies: oral 0.035 mg/kg or 0.35 mg/kg, oral glucose tolerance test within an hour, saline control. The procedure:
In these “acute” experiments zucker obese and zucker lean rats were orally administered either 0.035 mg/kg (low dose) or 0.35 mg/kg (high dose) of cyclohexyl-gly boro ala and then subjected to an oral glucose tolerance test within an hour. Each set of experiments was also performed using saline as a control.

Data set [2] has as its target DPPIV (Homo sapiens, UniProt P27487). In words: Inhibitor inactivation at pH 8 (time course, DPPIV inhibition read-out). The data set is classed as biochemical. As to conditions: pre-incubated at pH 8 (7.5-8) for 0, 60, 120, 180 minutes; compared with His-bAla, Ala-bAla, Phg-bAla. How it is done: In this experiment stock solutions of inhibitors (His-bAla, Ala-bAla, Phg-bAla and Cyclohexylglycine-bAla) were prepared at pH 1-2. These stock solutions were pre-incubated at pH 8 as follows: first, 1:10 dilutions into a buffer (0.1 M HEPES pH 8, 0.14 M NaCl) were performed; secondly, the pH was measured after dilution and varied for different inhibitors between 7.5 and 8; and thirdly, incubations at this pH were performed for 0, 60, 120, 180 minutes. Following incubation, 1:10 serial dilutions of inhibitors in buffer and 1:10 dilution of inhibitors into Enzyme (DPPIV) in buffer were made. The inhibitors were pre-incubated with enzyme for 10 minutes to account for slow binding and substrate (H-Ala-Pro-paranitoranalide) was added at a concentration of approx.=KM (17 μM). Absorbances at 410 nm were recorded for all inhibitors after 30 minutes.

For data set [3] the following is noted: pH around neutral, due to cyclization, inventors' previous work; cited from earlier work.
In a further data set the target is soluble DPIV (Homo sapiens, UniProt P27487). The following applies: inventors' previous work; cited from earlier work.
Data set [4] is described as follows: Cyclization equilibrium, ratio of [cyclic]:[open] forms. It counts as physicochemical. The following applies: at equilibrium at pH 7.0. The source says: In this example, Xaa-boro-Ala analogs containing bulky R substituent will be constructed to prevent cyclization and increase biological activity. […] The open, active, inhibitory chain species is favored at low pH while the cyclized structure is favored at high pH. Also, the reaction is fully reversible: the open chain becomes predominate at low pH. The open chain to cyclic species reaction involves a trans to cis isomerization of the proline and the formation of a new N—B bond. […] This means that less than 1% Pro-boroPro and less than 0.1% of Val-boroPro exists as the open chain, inhibitory species, at equilibrium at pH 7.0.
One feature of the present invention relates to the equilibrium constant for cyclization. […] In addition, the cis-trans isomerization rate, and therefore the rates of cyclization and uncyclization, are also much faster for compounds of the present invention. This feature is attributed by the inventors to a bulky substituent effect, e.g. where R in FIG. 8 represents a cyclohexyl.

Sequence of soluble DPIV (P27487 39-766 limits assumed): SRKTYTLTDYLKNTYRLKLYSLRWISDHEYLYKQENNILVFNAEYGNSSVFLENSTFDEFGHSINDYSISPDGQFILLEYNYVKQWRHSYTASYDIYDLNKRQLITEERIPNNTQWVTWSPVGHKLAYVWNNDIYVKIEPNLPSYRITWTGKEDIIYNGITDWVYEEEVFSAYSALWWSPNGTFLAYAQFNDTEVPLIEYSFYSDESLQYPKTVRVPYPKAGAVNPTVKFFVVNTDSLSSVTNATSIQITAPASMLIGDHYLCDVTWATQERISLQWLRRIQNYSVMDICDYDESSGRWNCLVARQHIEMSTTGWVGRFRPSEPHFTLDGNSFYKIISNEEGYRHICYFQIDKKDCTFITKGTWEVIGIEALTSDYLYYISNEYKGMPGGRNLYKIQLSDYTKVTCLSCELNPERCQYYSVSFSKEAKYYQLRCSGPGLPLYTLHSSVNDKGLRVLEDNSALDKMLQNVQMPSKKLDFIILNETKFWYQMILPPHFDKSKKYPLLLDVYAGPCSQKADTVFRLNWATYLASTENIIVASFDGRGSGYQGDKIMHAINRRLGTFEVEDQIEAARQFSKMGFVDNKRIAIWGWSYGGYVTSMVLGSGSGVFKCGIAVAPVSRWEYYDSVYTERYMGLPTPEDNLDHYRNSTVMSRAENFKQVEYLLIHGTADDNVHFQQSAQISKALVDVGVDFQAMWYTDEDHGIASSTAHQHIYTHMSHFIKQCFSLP
Sequence of DPPIV (Homo sapiens, UniProt P27487) (P27487 whole entry, species assumed): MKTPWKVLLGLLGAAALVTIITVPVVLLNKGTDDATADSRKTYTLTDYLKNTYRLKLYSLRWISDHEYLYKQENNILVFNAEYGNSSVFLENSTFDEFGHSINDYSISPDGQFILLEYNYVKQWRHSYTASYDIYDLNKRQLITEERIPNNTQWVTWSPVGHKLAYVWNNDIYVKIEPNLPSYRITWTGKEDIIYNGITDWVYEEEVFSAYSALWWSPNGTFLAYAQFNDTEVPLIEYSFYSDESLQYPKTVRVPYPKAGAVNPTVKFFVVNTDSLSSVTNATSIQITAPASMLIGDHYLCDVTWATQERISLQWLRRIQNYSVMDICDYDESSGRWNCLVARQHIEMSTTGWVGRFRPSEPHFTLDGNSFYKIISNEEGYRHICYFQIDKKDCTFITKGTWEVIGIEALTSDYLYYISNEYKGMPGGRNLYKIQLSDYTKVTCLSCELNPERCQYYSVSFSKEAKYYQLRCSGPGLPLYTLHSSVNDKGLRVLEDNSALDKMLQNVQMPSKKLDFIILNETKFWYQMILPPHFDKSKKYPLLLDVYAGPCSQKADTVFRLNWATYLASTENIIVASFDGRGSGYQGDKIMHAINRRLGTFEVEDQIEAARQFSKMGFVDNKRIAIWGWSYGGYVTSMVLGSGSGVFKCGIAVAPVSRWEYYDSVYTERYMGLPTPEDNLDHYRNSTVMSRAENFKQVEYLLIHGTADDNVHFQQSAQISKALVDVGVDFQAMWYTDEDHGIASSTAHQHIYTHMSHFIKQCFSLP
T1 sequence (P14740 37-767 limits assumed): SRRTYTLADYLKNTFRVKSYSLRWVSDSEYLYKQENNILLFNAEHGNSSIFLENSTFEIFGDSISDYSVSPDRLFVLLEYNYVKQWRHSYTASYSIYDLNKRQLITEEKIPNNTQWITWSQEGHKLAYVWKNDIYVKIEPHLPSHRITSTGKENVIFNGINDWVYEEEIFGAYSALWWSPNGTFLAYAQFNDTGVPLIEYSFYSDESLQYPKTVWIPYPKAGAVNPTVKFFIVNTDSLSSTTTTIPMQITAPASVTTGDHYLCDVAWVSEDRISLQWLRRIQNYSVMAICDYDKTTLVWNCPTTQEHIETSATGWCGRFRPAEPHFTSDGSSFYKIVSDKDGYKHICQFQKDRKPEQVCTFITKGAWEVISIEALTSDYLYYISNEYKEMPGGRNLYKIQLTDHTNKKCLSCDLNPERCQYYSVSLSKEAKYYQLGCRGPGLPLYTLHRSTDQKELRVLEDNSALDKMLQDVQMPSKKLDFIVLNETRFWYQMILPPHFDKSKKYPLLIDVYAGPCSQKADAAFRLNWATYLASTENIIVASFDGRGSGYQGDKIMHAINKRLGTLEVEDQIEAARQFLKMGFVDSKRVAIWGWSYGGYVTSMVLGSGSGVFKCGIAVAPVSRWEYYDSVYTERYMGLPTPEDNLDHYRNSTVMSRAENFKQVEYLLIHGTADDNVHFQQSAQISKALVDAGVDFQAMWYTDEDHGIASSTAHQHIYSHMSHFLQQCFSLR

Turning to `CC(NC(=O)C(N)C1CCCCC1)B(O)O` (centres unmarked) [Cyclohexylglycine-boroAla, Cyclohexylglycine boroAla], the “DPPIV enzyme activity in serum” value at DPPIV [1] is “significantly decreased”. In the data set with zucker obese rats, the “blood sugar in oral glucose challenge after oral administration” value is “orally active and clearly lowers blood sugar”. For the same compound, the “pH-time dependant inhibition (inactivation at pH 8)” value on DPPIV [2] is recorded as “does not show significant pH-time dependant inhibition”. Take `CC(N)C(=O)N1CCCC1B(O)O` [L-Ala-D,L-boroPro]: the “loss of inhibitory activity in aqueous solution” value in data set [3] is on record as “lost some of their inhibitory activity rapidly”. Regarding `O=C(C1CCCN1)N1CCCC1B(O)O` [L-Pro-D,L-boroPro], the “inhibition of the catalytic activity of soluble DPIV” value on soluble DPIV is reported as “potent inhibitors”. Moreover, the “loss of inhibitory activity in aqueous solution” value in data set [3] is listed as “lost some of their inhibitory activity rapidly”. With `O=C(C1CCCN1)N1CCCC1B(O)O` (centres unmarked) [Pro-boroPro], the “fraction existing as the open chain, inhibitory species” value in data set [4] is listed as “less than 1%”. Still for that read-out and setting: with `CC(C)[C@H](N)C(=O)N1CCC[C@H]1B(O)O` [Val-boroPro] the entry was “less than 0.1%”.
